According to patent publication US6031006A, “Method of treating diabetic nephropathy” (BioNumerik Pharmaceuticals, Inc., priority 1999, dated 2000):

How the values were obtained:
[1] = accepted value; cited from earlier work
mice = details: intravenous; cited from earlier work
[2] = target: T1, aldose reductase (human recombinant, expressed in SF 9 cells) (Homo sapiens, UniProt P15121); assay: Aldose reductase assay, reduction of glucose to sorbitol (NADPH oxidation, absorbance at 340 nm); type: biochemical
Procedure: (§1) Aldose reductase assays were as described in Nishimura C., Yamaoka T., Mizutani M., Yamashita K., Akera T., Tanimoto T., Purification And Characterization Of The Recombinant Human Aldose Reductase Expressed In Baculovirus System, Biochem. Biophys. Acta, Jun. 24, 1991; 1078(2):171-8.
(§2) Briefly, Dimesna (0-20 μM) was incubated at 37° C. with aldose reductase (0.0016 units, human recombinant, expressed in SF 9 cells) and NADPH (0.15 mM) in sodium phosphate buffer (100 mM, pH 6.2). To initiate assays, glucose (10-150 mM) was added to reactions and the decrease in absorbance at 340 nm (oxidation of NADPH) was monitored. Assays were run in duplicate or triplicate. Slopes were calculated using Varian-Cary software package 2.0 and averaged. In all cases errors were 4% or less. Lineweaver Burk analysis (Enzyme Kinetics, version 1.61) was used to calculate inhibition constants.

[3] = target: T1, aldose reductase (human recombinant, expressed in SF 9 cells); assay: Aldose reductase assay, NADPH dependent reduction of glyceraldehyde; type: biochemical; details: substrate glyceraldehyde 0.050-6 mM, 37° C., Lineweaver Burk analysis, read-out: Ki, inhibition of aldose reductase catalyzed reduction of glyceraldehyde to aldose
Procedure: as §1, §2
Aldose reductase assays were as described above. Dimesna (0-30 mM) was evaluated for its effect on the NADPH dependent reduction of glyceraldehyde (0.050-6 mM) to aldose at 37° C. Assays were run in duplicate or triplicate. Slopes were calculated using Varian-Cary software package 2.0 and averaged. In all cases errors were 4% or less. Lineweaver Burk analysis (Enzyme Kinetics, version 1.61) was used to calculate inhibition constants.

dogs = details: intravenous; cited from earlier work
humans = details: cited from earlier work

SMILES | oral LD50 [1] | Dose administered with no adverse effects (mice) | Type of inhibition of the aldose reductase reaction ([2]; Lineweaver Burk plots nearly parallel, glucose and glyceraldehyde substrates) | Ki ([2]; substrate glucose 10-150 mM, NADPH 0.15 mM, pH 6.2, 37° C., Lineweaver Burk analysis, read-out: Ki, inhibition of aldose reductase catalyzed reduction of glucose to sorbitol) | Ki [3] | Dose administered with no adverse effects (dogs) | Dose administered with no adverse effects (humans)
[Cl-].[Na+] [common table salt] | 3750 mg/kg | – | – | – | – | – | –
O=S(=O)([O-])CCSSCCS(=O)(=O)[O-].[Na+].[Na+] [Dimesna, disodium 2,2'-dithiobis ethane sulfonate] | – | > 3750 mg/kg | uncompetitive inhibition | 32 µM | 15.5 µM | > 3750 mg/kg | exceeding 15 g/m^2
